The values that follow come from the SangsterLogP compilation.

Series [1] is described as follows: method code SF, from DOI: 10.1007/bf02222191, PMID: 2473627.
Series [2] in a line: method code SF, from DOI: 10.1021/jm00123a006, PMID: 2918500. The following applies: pH 7.4.
Series [3] in a line: method code SF-HPLC, from DOI: 10.1002/jps.2600840622. The following applies: pH 7.0.
Test in series [4]: not given
This is another data set of the same source.

Test in series [5]: not given
The source holds these as a separate data set.

Test in series [6]: not given
This is another data set of the same source.

Test in series [7]: not given
The source holds these as a separate data set.

A short description of series [8]: method code SF-AS, from DOI: 10.1248/cpb.39.458, PMID: 1829027. Conditions: pH 7.0.
Test in series [9]: not given
The source holds these as a separate data set.

Test in series [10]: not given
The source holds these as a separate data set.

Series [11] in a line: method code SF-AS, from PMID: 10944786. Conditions: pH 7.0.
A short description of series [12]: method code SF, from DOI: 10.1248/cpb.35.4144, PMID: 3435941. Conditions: pH 6.8.
Series [13] can be described thus: method code SF-AS, from DOI: 10.1021/jm00099a010, PMID: 1433194. The following applies: pH 7.4.
Test in series [14]: not given
This is another data set of the same source.

Test in series [15]: not given
This is another data set of the same source.

Series [16] is described as follows: method code SF-RC, from DOI: 10.1016/j.ejmech.2016.07.069, PMID: 27565554. Conditions: pH 7.4.
Test in series [17]: not given
The source holds these as a separate data set.

Test in series [18]: not given
The source holds these as a separate data set.

The nature of series [19]: method code SF-GR, from DOI: 10.1021/jm00199a032, PMID: 619145.
Test in series [20]: not given
The source holds these as a separate data set.

A short description of series [21]: method code SF-HPLC, from Liang, J.; Deng, J. (2011). Determination of n-octanol/wanter Partition Coefficient of Mangiferin. West China Journal of Pharmaceutical Sciences, 26(2)193-195. Conditions: pH 2.5.
Test in series [22]: not given
The source holds these as a separate data set.

Series [23] can be described thus: method code SF-RC, from Godoy, N.; Valle, L.; Mena, P.; Gil, M. (1989). Synthesis, labeling and biodistribution of 99mTc-labelled bromoimino diacetic acids. Nucleotecnica, 9(17)25-32.
Test in series [24]: not given
The source holds these as a separate data set.

Test in series [25]: not given
This is another data set of the same source.

Series [26] is described as follows: method code SF-RC, from DOI: 10.1002/jlcr.1932. The following applies: pH 7.4.
Series [27] in a line: method code SF-RC, from DOI: 10.1021/es00096a007.
The nature of series [28]: method code SF, from DOI: 10.1007/978-94-011-1472-1_81.
Series [29] is described as follows: from Kyomura, N., Fukuchi, T., Kohyama, Y., & Motojima, S. (1990). Biological characteristics of new acaricide MK-239. In Brighton Crop Protection Conference, Pests and Diseases - 1990 (Vol. 1, pp. ….
The nature of series [30]: method code SF-AS, from DOI: 10.1016/0048-3575(88)90061-2.
Test in series [31]: not given
This is another data set of the same source.

Test in series [32]: not given
The source holds these as a separate data set.

The nature of series [33]: method code SF-AS, from DOI: 10.1021/jm00170a024, PMID: 2374146.
Series [34] in a line: method code SF-AS, from DOI: 10.1213/00000539-199008000-00008, PMID: 2375517.
A short description of series [35]: method code SF-AS, from PMID: 872227. Conditions: pH 7.2.
Test in series [36]: not given
This is another data set of the same source.

Test in series [37]: not given
This is another data set of the same source.

Test in series [38]: not given
This is another data set of the same source.

Series [39] is described as follows: method code SF-RC, from DOI: 10.1016/j.bmcl.2015.05.048, PMID: 26073008. Conditions: pH 7.4.
A short description of series [40]: method code SF-HPLC, from DOI: 10.1002/jps.2600830510, PMID: 8071813.
Series [41] can be described thus: method code SF, from DOI: 10.1021/bk-1995-0606.ch008.
Test in series [42]: not given
The source holds these as a separate data set.

Series [43] can be described thus: method code SF-HPLC, from PMID: 11745753. Conditions: pH 11.0.
The nature of series [44]: method code SF-AS, from DOI: 10.1002/pauz.19770060602.

In series [1], `CC(C)NCC(O)COc1ccccc1C1CCCCC1` (stereo not given) displayed a logP of 2.86.

`[N-]=[N+]=Nc1ccc(CCN2CCN(c3cccc(C(F)(F)F)c3)CC2)cc1I` had a logD in series [2] of 3.33.

The compound `COC(=O)C1C2CC3CCC1N3CC2=Cc1ccc(I)c(Cl)c1` (stereo not given) returned a logP of 4.25.

Take `CCN1CCN(c2cc3c(cc2F)c(=O)c(C(=O)O)cn3CC)CC1`: the logD in series [3] is 0.37.

As to `COc1ccc2c3c1O[C@H]1[C@@H](O)C=C[C@H]4[C@@H](C2)N(C)CC[C@@]341`, in [4], the logP is 1.22.

`O=C1/C(=C/c2cccc(Cl)c2)CCCc2ccccc21` gave a logP in series [5] of 5.22.

On to `CC1N=C2C3CC(c4ccccc4)CCC3C=CN2C1C` (stereo not given), for which, in series [6], the logP amounted to 3.9.

`c1ccc(C2=NOC3COC(c4ccccc4)OCC23)cc1` (stereo not given) had a logP in [7] of 3.42.

In series [8], `CCCC(=O)OC[C@H]1O[C@@H](n2cc(F)c(=O)[nH]c2=O)C[C@@H]1OC(=O)CCC` yielded a pH-dependent lipophilicity (logD) of 1.9.

As for `CC1C=COC1C(=O)Nc1cccc(-c2nc3ncccc3o2)c1` (stereo not given), the logP in series [9] was 2.9.

For `CC(C)(Oc1ccccc1)C(=O)N[C@@H]1C(=O)N2[C@@H]1SC(C)(C)[C@@H]2C(=O)O`, in series [10], the logP is 2.76.

For the compound `CCCCOc1cccc(NC(=O)OCN2CCCCC2)c1`, in series [11], the logD worked out at 2.97.

In series [12], `COC(=O)C1=C(C)NC(C)=C(P2(=O)OCCCO2)C1c1ccccc1[N+](=O)[O-]` (stereo not given) gave a pH-dependent lipophilicity (logD) of 1.3.

In [13], `CN1CCN(Cc2ccc(C(=O)c3csc(S(N)(=O)=O)c3)cc2)CC1` came in with a logD of 0.37.

As to `Clc1ccc(COC(Cn2ccnc2)c2ccc(Cl)cc2Cl)c(Cl)c1` (stereo not given), the logP in [14] was 5.81.

For `COC(=O)c1cc(OC)c2c(c1-c1c(CO)cc(OC)c3c1OCO3)OCO2`, in series [15], the logP is 1.7.

For the compound `COc1cc2c(cc1I)C/C(=C\c1ccc(N(C)C)cc1)C2=O`, the logD in series [16] amounted to 3.45.

As to `CC[C@@H](c1ccc(O)cc1)[C@H](CCF)c1ccc(O)cc1`, in series [17], the logP amounted to 4.03.

In [18], `Cc1onc(-c2ccccc2)c1C(=O)NC1C(=O)N2C1SC(C)(C)C2C(=O)O` (stereo not given) yielded a logP of 2.34.

`S=P(NN=Cc1ccccn1)(NN=Cc1ccccn1)Oc1ccccc1` displayed a logP in series [19] of 1.62.

With `O=S(=O)(c1ccc(F)cc1)C1CCN(CCc2ccc(F)cc2F)CC1`, the log partition coefficient (logP) in series [20] was determined as 2.47.

`O=c1c2cc(O)c(O)cc2oc2cc(O)c([C@@H]3O[C@H](CO)[C@@H](O)[C@H](O)[C@H]3O)c(O)c12` showed a logD in series [21] of 0.36.

For the compound `CCCCC(CC)COC(=O)c1ccc(N(C)C)cc1` (stereo not given), the logP in series [22] stood at 6.6.

For the compound `CC(C)c1ccc(Br)c(C(C)C)c1NC(=O)CN(CC(=O)O)CC(=O)O`, the logP in [23] worked out at 0.2.

`COc1c(OC)c(OC(C)=O)c2cc(NC(C)=O)ccc2c1OC(C)=O` displayed a logP in series [24] of 2.

Turning to `Cc1ccccc1C(OCCN(C)C)c1ccccc1` (stereo not given), in [25], the logP was 3.77.

`O=C(OCC1=CC(=O)c2ccccc2C1=O)c1ccc(F)cc1` displayed a logD in [26] of 2.7.

On to `Nc1cc2c3ccccc3ccc2c2ccccc12`, for which the logP in series [27] worked out at 4.98.

In turn, `Cc1cccc2c1Sc1ccccc1C2NC(=O)CN(C)C` (stereo not given) had a logP in [28] of 3.24.

Consider `CCc1nn(C)c(C(=O)NCc2ccc(C(C)(C)C)cc2)c1Cl`, for which the logP in [29] amounted to 4.61.

`O=C(NC(=O)c1c(F)cccc1F)Nc1ccc(Oc2ncc(Cl)cc2Cl)cc1` registered a logP in [30] of 3.27.

As to `O=C(NN1C(=O)[C@@H]2[C@@H]3C=C[C@@H]([C@H]4C[C@@H]34)[C@@H]2C1=O)c1ccc(C(F)(F)F)cc1`, in series [31], the logP stood at 2.36.

For `O=C(O)c1cc(/N=N/c2ccc(S(=O)(=O)Nc3ccccn3)cc2)ccc1O`, the logP in series [32] is -0.13.

As to `CCOP(=O)(Cc1ccc(-c2nc3ccccc3s2)cc1)OCC`, the logP in series [33] was found to be 3.5.

In series [34], `CCCN1CCCC[C@H]1C(=O)Nc1c(C)cccc1C` had a logP of 2.89.

On to `CCCOc1ccc(NC(=O)OCCN2CCOCC2)c(C)c1`, for which the logD in [35] was 2.21.

As for `CN1CCN2c3ccccc3Cc3ccccc3C2C1` (stereo not given), the logP in series [36] stood at 4.

In series [37], `CCCCCCCCCCCCCCOC(=O)C(C)O` (stereo not given) came in with a logP of 6.08.

For the compound `CC(C)(C)NCC(COc1nsnc1N1CCOCC1)OC(=O)C1CCC1` (stereo not given), the logP in [38] was determined as 2.36.

In turn, `COc1ccc(/C=C/c2cc(=O)c3cc(I)ccc3o2)cc1OC` yielded a logD in series [39] of 2.14.

In [40], `O=C(OCCN1CCOCC1)c1ccccc1Nc1c(Cl)cccc1Cl` showed a logP of 2.72.

In turn, `O=C(Nc1ccc(F)cc1F)c1cccnc1Oc1cccc(C(F)(F)F)c1` had a logP in [41] of 4.49.

In series [42], `CC12CCC3c4ccc(O)cc4CCC3C1CC(F)C2O` (stereo not given) had a logP of 2.98.

The compound `CCCCN1CCCCC1C(=O)Nc1c(C)cccc1C` (stereo not given) had a log distribution coefficient (logD) in [43] of 3.35.

`O=C1CN=C(c2ccccc2)c2cc(Cl)ccc2N1CC1CC1` showed a logP in series [44] of 3.31.

In general, logP refers to the decadic logarithm of the partition coefficient of the neutral form, usually between octanol and water. Broadly, the logD is lipophilicity at a set pH, counting ionised and neutral species. A low value points to lower lipophilicity.
